According to publication PMC9268102, “Design, Synthesis and Biological Evaluation of 1,3,5-Triazine Derivatives Targeting hA1 and hA3 Adenosine Receptor” (Molecules, 2022):

Key:
Type in all cases: cell-based
hA1 AR [1] = biological target: T1, hA1 AR (Homo sapiens, UniProt P30542); assay: cAMP accumulation assay, agonist mode, hA1 AR; conditions: relative to NECA, CHO-A1 cells
T1 construct: host or cells: CHO-A1 (CHO cells expressing hA1 AR)
T1 sequence (P30542 1-326): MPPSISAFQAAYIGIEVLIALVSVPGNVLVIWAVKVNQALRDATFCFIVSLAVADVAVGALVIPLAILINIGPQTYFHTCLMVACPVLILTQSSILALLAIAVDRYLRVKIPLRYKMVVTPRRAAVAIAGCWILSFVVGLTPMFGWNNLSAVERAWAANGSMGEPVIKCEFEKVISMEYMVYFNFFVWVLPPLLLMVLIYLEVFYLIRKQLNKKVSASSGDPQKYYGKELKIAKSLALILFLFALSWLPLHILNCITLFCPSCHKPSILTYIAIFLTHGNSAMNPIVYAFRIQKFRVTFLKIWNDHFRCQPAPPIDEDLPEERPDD
Source text: (§1) To determine whether 1,3,5-triazine scaffold derivatives behave as agonists or antagonists, we performed cAMP accumulation assays with 11a and 11b at hA1 and hA3 AR. We confirmed whether the test compounds behave as antagonists by measuring the concentration change in cAMP in the presence of a full agonist 5-N-ethylcarboxamido adenosine (NECA) using antagonist mode assays. We also confirmed whether the test compounds could behave as agonists by comparing the relative percentage activation of NECA using agonist mode assays.
(§2) hA1 and hA3 AR functional experiments were carried out in CHO-A1 and CHO-A3#18 cell line, respectively. The day before the assay, the cells were seeded on the 96-well culture plate (Falcon 353072). The cells were washed with wash buffer (Mixture F12 Ham’s (Sigma N6658) for hA1 AR; Dulbecco’s modified eagle’s medium nutrient mixture F-12 ham (Sigma D8062) for hA3 AR; 25mM Hepes; pH = 7.4). Wash buffer was replaced by incubation buffer (Mixture F12 Ham’s (Sigma N6658) for hA1 AR; Dulbecco’s modified eagle’s medium nutrient mixture F-12 ham (Sigma D8062) for hA3 AR; 25 mM Hepes, 20 µM Rolipram (Sigma R6520); pH = 7.4). The cells were pre-incubated at 37 °C for 15 min. […] After incubation, the amount of cAMP was determined using cAMP Biotrak Enzyme immunoassay (EIA) System Kit (GE Healthcare RPN225).

hA3 AR [2] = biological target: T2, hA3 AR (Homo sapiens, UniProt P0DMS8); assay: cAMP accumulation assay, agonist mode, hA3 AR; design: expressed in transfected cells; conditions: relative to NECA, CHO-A3#18 cells
T2 sequence (P0DMS8 1-318): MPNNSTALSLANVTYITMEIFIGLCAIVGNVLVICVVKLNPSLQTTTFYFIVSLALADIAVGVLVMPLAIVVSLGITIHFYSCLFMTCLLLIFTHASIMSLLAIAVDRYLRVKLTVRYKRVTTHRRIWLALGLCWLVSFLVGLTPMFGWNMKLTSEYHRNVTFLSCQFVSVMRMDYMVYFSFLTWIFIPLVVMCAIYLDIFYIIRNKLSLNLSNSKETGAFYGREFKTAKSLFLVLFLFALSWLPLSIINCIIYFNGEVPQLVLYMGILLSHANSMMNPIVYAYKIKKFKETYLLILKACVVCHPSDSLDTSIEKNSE
Source text: as §1, §2

hA1 AR [3] = biological target: T1, hA1 AR; assay: cAMP accumulation assay, antagonist mode, hA1 AR; conditions: in presence of NECA, CHO-A1 cells
Source text: as §1
(§3) hA1 and hA3 AR functional experiments were carried out in CHO-A1 and CHO-A3#18 cell line, respectively. The day before the assay, the cells were seeded on the 96-well culture plate (Falcon 353072). The cells were washed with wash buffer (Nutrient Mixture F12 Ham’s (Sigma N6658) for hA1 AR; Dulbecco’s modified eagle’s medium nutrient mixture F-12 ham (Sigma D8062) for hA3 AR; 25 mM Hepes; pH = 7.4). Wash buffer was replaced by incubation buffer (Mixture F12 Ham’s (Sigma N6658) for hA1 AR; Dulbecco’s modified eagle’s medium nutrient mixture F-12 ham (Sigma D8062) for hA3 AR; 25 mM Hepes, 20 µM Rolipram (Sigma R6520); pH = 7.4). […] After incubation, the amount of cAMP was determined using cAMP Biotrak Enzyme immunoassay (EIA) System Kit (GE Healthcare RPN225).

hA3 AR [4] = biological target: T2, hA3 AR; assay: cAMP accumulation assay, antagonist mode, hA3 AR; design: expressed in transfected cells; conditions: in presence of NECA, CHO-A3#18 cells
Source text: as §1, §3

A549 cells = assay: Cell viability (MTS) assay in A549 cells; conditions: Homo sapiens, 48 h
Description: To test the effect of the compounds in terms of cell growth regulation in lung cancer cell lines such as A549 and NCI-H1299 cells, these cells were treated in 96-well plates for 48 h with the compounds at concentrations ranging from 0 μM to 100 μM. […] Therefore, we decided to perform an additional experiment with 9c.
A549 and NCI-H1299 cells were seeded in 96-well plates at a density of 1 × 10^5 cells per well for 24 h before being exposed to compounds at various concentrations. After 48 h of compound treatment, the CellTiter 96 AQueous One Solution Cell Proliferation Assay Kit (Promega, Madison, WI, USA) was used to conduct a cell viability assay. The cells were incubated with solution reagents for 2 h at 37 °C before being measured for absorbance at 490 nm using a Synergy HTX Multi-Mode microplate reader (BioTek Instruments, Inc., Winooski, VT, USA).

| Structure (SMILES) | Percentage activation in agonist mode, hA1 AR (hA1 AR [1]) [%] | Percentage activation in agonist mode, hA3 AR (hA3 AR [2]) [%] | Percentage inhibition in antagonist mode, hA1 AR (hA1 AR [3]) [%] | Percentage inhibition in antagonist mode, hA3 AR (hA3 AR [4]) [%] | viability at 25 µM (A549 cells) [%] |
| --- | --- | --- | --- | --- | --- |
| COc1ccc(Nc2nc(N)nc(-c3ccc(F)cc3)n2)cc1F [Compound 11b, N^2-(3-fluoro-4-methoxyphenyl)-6-(4-fluorophenyl)-1,3,5-triazine-2,4-diamine] | 23 | 6 | 60 | 88 | – |
| COc1cc(Nc2nc(N)nc(-c3ccc(O)cc3)n2)ccc1Cl [Compound 9c, 4-{4-amino-6-[(4-chloro-3-methoxyphenyl)amino]-1,3,5-triazin-2-yl}phenol] | – | – | – | – | 59.9 |
| COc1ccc(-c2nc(N)nc(Nc3ccc(OC)c(F)c3)n2)cc1 [Compound 11a, N^2-(3-fluoro-4-methoxyphenyl)-6-(4-methoxyphenyl)-1,3,5-triazine-2,4-diamine] | 11 | 17 | 1 | 77 | – |
